Test results from a melting point compilation (Tetko et al.; mined from patent text by program, amines drawn as free bases though some values may be those of a salt).

SMILES | melting point [°C]
CC(N)C(N)CC(=O)c1ccccc1 (centres undefined) | 106 to 107
O=C(O)C1(CCc2ccc(Cl)cc2)CCN(CC2CC2)CC1 | 250
CCN1CCNS(=O)(=O)c2cc(Oc3ccccc3)ccc21 | 138
NC(=O)c1c(Cl)c(-c2ccccc2)n2c1CN(C(=O)Oc1ccccc1)CC2 | 196 to 198
COC(=O)CC(c1ccc(C)cc1)N1C(=O)c2ccccc2C1=O (centres undefined) | 97 to 99
Nc1cc(O)ccc1CCCl | 96 to 100
O=C(N(CCN(C(=O)C(F)(F)F)c1cccc2[nH]cc(Cl)c12)Cc1ccccc1)C(F)(F)F | 139 to 142
COc1ccc(-c2cc3cc(OC)cc(CBr)c3o2)cc1 | 158 to 160
COC(=O)c1ccc(-c2ccc(-c3cn([C@H]4CN5CCC4CC5)nn3)s2)cc1Cl | 200
CS(=O)CCC(=O)Nc1ccc(OCC(O)CO)cc1 (centres undefined) | 139 to 141
CCC(CC)CC(=O)C1=C(O)c2cc(OC)c(OC)c(OC)c2C(O)(c2ccc(OC)c(OC)c2)C1C(=O)OC (centres undefined) | 132 to 133
O=C1c2ccccc2-n2c(nc3ccccc3c2=O)CN1CCc1ccccc1 | 208 to 210
Cc1ccc(-n2nc(C(C)(C)C)cc2NC(=O)NCc2ccccc2Oc2cc(N3CCOCC3)ncn2)cc1 | 128
CNC(=O)Nc1ccc(OC)c(-c2ccc(C[C@H](NC(=O)c3c(Cl)cccc3Cl)C(=O)O)cc2)c1OC | 236 to 237
CN=C(NC#N)NCCSCc1ccsn1 | 63 to 64
COC1CN(C)S(=O)(=O)c2sccc21 (centres undefined) | 61 to 63
O=C(c1ccc(-c2ncn[nH]2)cc1)N1Cc2cccn2Cc2ccccc21 | 225 to 227
CCOP(C)(=O)CC(CCc1ccccc1)NS(=O)(=O)c1ccc(C)cc1 (centres undefined) | 107 to 108
CC(=O)c1cccc2nnsc12 | 126 to 127
COc1ccc(Nc2cncc(-c3cccc(Nc4ccccn4)c3)c2)cc1 | 161 to 165
N#Cc1c(N2CCc3ccccc3CC2)nc(C2CC2)[nH]c1=O | > 200
Nc1nc(N2CCCC2)c2ncn([C@@H]3C[C@H](CO)[C@@H](O)C3)c2n1 | 114 to 117
N#CCC1(c2ccc(Cl)cc2)CCC1 | 63 to 65
O=c1ccn(CC(O)CO)c(Cc2ccccc2)c1O (centres undefined) | 185 to 186
CCCCc1noc(-c2sccc2N)n1 | 69 to 70

SMILES | melting point [°C]
COCCNC(=O)c1cccc(-c2cccc3cc(Cc4cccc(N(C)C)c4)sc23)c1 | 92 to 93
O=S1CCN(c2nc3c(-c4nc(C5CC5)no4)ncn3c3ccccc23)CC1 | 293 to 294
CC(C)(C)OC(=O)C[C@H](NC(=O)CNC(=O)c1csc(NC(=O)NCc2ccccc2)n1)C(=O)Nc1ccccc1C(=O)OC(C)(C)C | 116
CCc1nc2cnc3cc(OCc4ccccc4)ccc3c2n1CC(C)C | 127
CCN1c2ncc(Br)cc2C(=O)N(C)c2ccc(F)nc21 | 154 to 156
O=P(Cc1ccc2ccccc2c1-c1c(CP(=O)(c2ccc(F)cc2)c2ccc(F)cc2)ccc2ccccc12)(c1ccc(F)cc1)c1ccc(F)cc1 | 211 to 214
COc1cc(O)c2c(c1)[C@H]1CN(C)CC[C@@H]1CC2=O (relative stereo) | > 250
CN(C)C(=O)c1ccc2c(c1)C(=NNc1ccc(S(N)(=O)=O)cc1)C(=O)N2 | > 230
CC1(C)OC(=O)Nc2c(Br)cc(-c3ccc(F)c(C#N)c3)cc21 | 235 to 236
CC(C)(C)[Si](C)(C)Oc1ccccc1-c1cc(-c2cccc([N+](=O)[O-])c2)c(C#N)c(NC(=O)c2cccs2)n1 | 106 to 108
COc1ccc(F)c2c1C[C@@H](NO)CO2 | 111 to 113
CCOCCNc1ncc(Cc2cc(OC)c(OC)c(OC)c2)c(N)n1 | 147
CCN1C(=O)C2CC(c3ccc(N)cc3)(C2)C1=O | 159 to 162
CCCOc1ccc(S(C)(=O)=O)cc1C(=O)Nc1c(CC)nn(CC2CCCN2C)c1C(N)=O (centres undefined) | 217 to 221
Cc1ccccc1-n1nccc1-c1nn(-c2cccc(C(F)(F)F)c2)ccc1=O | 126 to 127
Cc1nc2c(s1)N(C(=O)c1cnoc1C)CCCC2 | 117 to 118
CC(=O)Nc1nc(C=O)cs1 | 196 to 199
CCCCCCN1CC(C(=O)OC)N(S(=O)(=O)c2ccc(-c3ccc(Br)cc3)cc2)CC1=O (centres undefined) | 127 to 129
CC(=O)Nc1c(N)cc(Br)cc1OCc1ccccc1 | 185
CCOC(=O)c1cnc2ccc(OCC)nc2c1Nc1ccc(OCC(O)CO)cc1 (centres undefined) | 143 to 145
Cc1nc(-n2cnn(Cc3ccc(F)cc3)c2=O)sc1C(N)=O | 232 to 233
O=c1[nH]c2ncc(-c3ccn[nH]3)nc2n1CC1CCCCC1 | 264 to 266
CCOC(=O)c1nc2n(c(=O)c1OCc1ccccc1)CCCC2 | 151
CC1=Nc2c(C)nn(C)c2C2=NC(C)(C)CN12 | 148 to 150
O=C(NC(=O)c1c(F)cccc1F)Nc1cc(Cl)c(OCC(F)(F)F)cc1F | 201 to 202

SMILES | melting point [°C]
COc1cc(N)c(Cl)cc1C(=O)NC1CCN(CC2CCN(C(=O)c3ccco3)CC2)CC1 | 179 to 181
C=Cn1c(C)c(C)c2cnnc(OCc3ccccc3)c21 | 85 to 86
COc1ccc2cc([C@H](C)C(=O)OCCS(=O)CCO)ccc2c1 (some centres undefined) | 74 to 86
NS(=O)(=O)OCCOc1ccccc1Cl | 84.5 to 86
O=C1Nc2cccc(-c3cccc(NC(=O)c4ccc(O)cc4)c3)c2/C1=C/c1ccc[nH]1 | 236 to 238
O=C(C(Cl)Cl)N1CCC2(CC1)OCCO2 | 102
CCc1cc2c(Cl)cc(F)c(-n3c(=O)cc(C(F)(F)F)n(C)c3=O)c2o1 | 142 to 143
CC(Cc1c[nH]c2ccccc12)(NC(=O)OCC1c2ccccc2-c2ccccc21)C(=O)NC(CO)Cc1ccccc1 (centres undefined) | 89 to 93
COc1nc(NC(=N)SC)nc(OC)n1 | 94 to 100
COc1ccc(NC(C)=O)c(Sc2ccc(C#N)cc2[N+](=O)[O-])c1 | 195 to 199
CCN(CC)Cc1cnc(-c2ncn3c2CN(C)C(=O)c2cc(F)ccc2-3)o1 | 182 to 184
CCOC(=O)C1=C(C)NC(c2cscn2)=NC1c1ccc(F)cc1Cl (centres undefined) | 140 to 142
C[C@@H]1C(=O)C[C@H]2C[C@@H]1OO[C@@]2(C)/C=C\c1ccccc1 | 60
CCCCCC(=O)O[C@H]1C[C@H](O)C=C2C=C[C@H](C)[C@H](CC[C@@H]3C[C@@H](O)CC(=O)O3)[C@H]21 | 138 to 139
O=C(Nc1cc(Cl)ccn1)c1ccccn1 | 118 to 120
COc1cc(C(C)C)c2c(c1)S(=O)(=O)N(COc1cc(C(F)(F)F)nn1-c1ccc3ccccc3n1)C2=O | 124 to 125
Cc1cccc(CSc2nc3cnccc3[nH]2)c1 | 166 to 168
Cc1ccc(S(=O)(=O)Oc2ccc(S(=O)(=O)Cc3cccnn3)cc2)cc1 | 161
CC1=C(C)C(F)N(c2ccc(Cl)c(Cl)c2)C1=O (centres undefined) | 102 to 103
CCC(=O)OC(C)c1ccc(O)cc1 (single isomer, unassigned; (+)) | 71 to 72
Cc1nc(SC(=N)N)[nH]c1C | 283 to 285
CCOC(=O)c1cn(-c2cc(C)on2)cn1 | 142 to 143
C=C(C)C(=O)OC1=CC(O)(C(C)=O)C(C(=O)O)C=C1 (centres undefined) | 153
CC1C=C(C(=O)C(C#N)C(=O)Nc2ccccc2)c2cccc3c2=C1C1=CN=NC=31 (centres undefined) | 275 to 278
CCCCCCON=C(C(=O)OCC)c1csc(N)n1 | 77 to 78

SMILES | melting point [°C]
COc1cccc(-n2c(-c3ccccc3)cc(=O)c(C)c2-c2ccccc2)c1 | 183 to 185
Ic1ccc2c3c(cccc13)C(=NCc1ccccc1)N2 | 160 to 163
COc1ccc2c(n1)C1(CO2)C(=O)N(CC2CCCO2)c2cccc(Br)c21 (centres undefined) | 110 to 112
c1ccc(CN2CCC3(C2)OC(c2ccccc2)c2ccccc23)cc1 (centres undefined) | 85 to 87
Cc1cc(-c2nc3cccnn3c2-c2ccnc(NC(=O)c3cccc4cccnc34)c2)ccc1F | 229 to 230
CC(Cc1ccc(Br)cc1)C(=O)NC(C)(C)CO (centres undefined) | 120 to 121
O=C(O)c1cc(Cl)c(O)c(O)c1Cl | 230 to 231
Clc1nc(-c2ccccc2)nc2c1Cc1ccccc1O2 | 168 to 170
Cc1cc(-c2cccnc2)n2ncnc2n1 | 183 to 185
N#Cc1ccc(-c2ccc(N3CCCNC3=O)cc2)cc1 | > 200
CC(=O)NC[C@H]1CN(c2ccc(N3CCC4(CC3)CC4(C#N)C#N)cc2)C(=O)O1 | 172 to 174
CC(C)OC(=O)c1ccc(Nc2cccc(N3CCCCC3)c2)c([N+](=O)[O-])c1 | 160 to 161
CC(C)C[C@H]1CN(Cc2ccccc2)C[C@@H]1C(=O)O | 236 to 239
CCCN(CCCc1c[nH]c2ccc(F)cc12)C1COc2ccc3ncccc3c2C1 (single isomer, unassigned; (+)) | 106
CC(=O)Nc1ccc(N2CCC(N(C)Cc3ccccc3)CC2)cc1 | 147
O=C(O)CCc1cn(Cc2cccc(C(=O)Nc3ccccn3)c2)nc1-c1ccccc1 | 187 to 188
CC(C)(c1ccc2ncccc2c1)n1nnc2ccc(-c3cnn(CCO)c3)nc21 | 95 to 98
Nc1nccc(-c2ccccc2OCC(O)CN2CCN(c3ccc(Cl)cc3)CC2)n1 (centres undefined) | 159 to 160
CC(C)(C)OC(=O)N[C@H]1CCC(=O)C1 | 97 to 98
O=Cc1c2ccccc2c(C=O)c2ccccc12 | 224 to 245
CN1CCN(c2ccc(Nc3ncc4c(n3)S/C(=C/c3ccc([N+](=O)[O-])cc3)C(=O)N4)cc2)CC1 | 276 to 279
CCN(CC)c1cccc2nc3n(c12)CC(F)(F)CN3c1ccc(Cl)cc1Cl | 125 to 127
O=C1c2c(OCc3ccccc3)cccc2-c2nn(CCN(CCO)Cc3ccccc3)c3ccc(Cl)c1c23 | 130 to 134
CCCCc1nc2cccc(C(=O)OC)c2n1Cc1ccc(-c2ccccc2C#N)nc1 | 155 to 156
